Assay results as given in patent US8785447B2, “Use of dopamine D3 receptor ligands for the production of drugs for treating renal function disorders” (AbbVie Deutschland GmbH & Co. KG, priority 2000, dated 2014).

Legend:
Assay type in all cases: in vivo, male Sprague-Dawley rats
[1] = tested on: animal experimental model of diabetic nephropathy (rats with streptozotocin-induced diabetes mellitus); experiment: Histopathological examination of the kidneys of streptozotocin-diabetic rats; conditions: for structural intrarenal changes occurring in diabetic nephropathy: comparison of the treatment groups; for glomerular hypertrophy (enlargement of the glomeruli): mean of 20 microscopically measured areas, S-sulpiride 25 mg/kg/d, D3-A1 5 mg/kg/d
Description: (§1) 60 mg/kg of streptozotocin, dissolved in citrate buffer (21 mg of citric acid per 1 ml of double-distilled water), were injected intraperitoneally into male Sprague-Dawley rats having a body weight of 180 to 200 g. Diabetes mellitus was regarded as being induced successfully when an evening glucose concentration of at least 180 mg/dl was found in the venous blood after 24 hours. The blood glucose values of the diabetic animals were between 350 and 450 mg/dl. Insulin substitution was thus not necessary. The body weight of the experimental animals increased about 5 g per day. The same volume of citrate buffer was injected intraperitoneally into nondiabetic time control animals (CON). They had blood glucose values of between 90 and 1120 mg/dl.
(§2) Immediately after successful determination of diabetes mellitus, the animals were accommodated in normal cages with standard feed (Altromin 1320) and mains water ad libitum. By means of different medicinal treatment (administration of the substances via the drinking water), the following four experimental groups were formed: • CON (1) nondiabetic animals without additional treatment (time control) • DM-VHC (2) diabetic animals without additional treatment (diabetic control) • DM-SUL (3) diabetic animals with S-sulpiride treatment (25 mg/kg/d) • DM-D3 (4) diabetic animals with D3-A treatment (D3-A1: D3 receptor antagonist according to Example (7) (5 mg/kg/d); D3-A2: D3 receptor antagonist according to Example (11))
(§3) The volume of liquid absorbed was recorded daily. Every third day, the body weight and the blood glucose level of the animals were determined. After 12 days, the experimental animals were kept in metabolic cages for 24 hours for urine collection. The protein concentration in the urine was determined according to the standard method described by Lowry. For this, after incubation of the samples with 1 M NaOH a color reaction was induced with Folin reagent (phenol-Ciocalteu's), whose intensity was quantified photometrically. The albumin concentration in the urine was determined by a radioimmunoassay (RIA) specific for albumin. A kit from Biermann (KHAD 2: albumin RIA), was employed which used a polyclonal antibody against human serum albumin (goat) and ^125I-labeled human serum albumin as a tracer. After 14 to 16 days, the animals were anesthetized with thiopental (80 mg/kg) and polyethylene catheters were placed in the jugular vein and the carotid artery and also in the urinary bladder. The glomerular filtration rate (GFR) was determined by means of the renal ^3H-inulin clearance. The mean arterial blood pressure (MAP) and the heart rate (HR) were furthermore recorded during the experiment. At the end of the clearance experiments, the kidneys were removed and subjected to a histopathological examination.

[2] = tested on: animal experimental model of diabetic nephropathy (rats with streptozotocin-induced diabetes mellitus); experiment: 24-hour urine collection (protein by Lowry, albumin by RIA) in streptozotocin-diabetic rats; conditions: for albuminuria / proteinuria: 24-hour urine of conscious diabetic rats after 12 days, via drinking water, S-sulpiride 25 mg/kg/d, D3-A1 5 mg/kg/d; for albuminuria: untreated diabetic 118 vs. time control 23; for proteinuria: untreated diabetic 133 vs. time control 46
Description: (§4) The action of the dopamine D3 antagonists was investigated in an animal experimental model of diabetic nephropathy. Rats in which diabetes mellitus had been induced by administration of streptozotocin developed marked glomerular hyperfiltration within 14 days.
as §1, §2, §3

[3] = tested on: animal experimental model of diabetic nephropathy (rats with streptozotocin-induced diabetes mellitus); experiment: Clearance investigation (renal 3H-inulin clearance, GFR) in anesthetized streptozotocin-diabetic rats; conditions: for glomerular filtration rate (GFR): anesthetized diabetic rats after 14 to 16 days, 3H-inulin clearance, S-sulpiride 25 mg/kg/d, D3-A 5 mg/kg/d, untreated diabetic 1.10 vs. time control 0.83
Description: as §4, §1, §2, §3

[4] = tested on: animal experimental model of diabetic nephropathy (rats with streptozotocin-induced diabetes mellitus); experiment: Kidney wet weight of streptozotocin-diabetic rats
Description: as §1, with “[…]. […]” for “1120 mg/dl.”
The volume of liquid absorbed was recorded daily. Every third day, the body weight and the blood glucose level of the animals were determined. […] The protein concentration in the urine was determined according to the standard method described by Lowry. For this, after incubation of the samples with 1 M NaOH a color reaction was induced with Folin reagent (phenol-Ciocalteu's), whose intensity was quantified photometrically. The albumin concentration in the urine was determined by a radioimmunoassay (RIA) specific for albumin. […] The glomerular filtration rate (GFR) was determined by means of the renal ^3H-inulin clearance. […]

[5] = diabetic rats, subchronic treatment
[6] = diabetic rats, subchronic treatment, 30 mg/kg body weight per day

| SMILES | structural intrarenal changes occurring in diabetic nephropathy [1] | glomerular hypertrophy (enlargement of the glomeruli) [1] | albuminuria [2] | proteinuria [2] | pathological protein and albumin excretion ([2]; diabetic rats, comparison of the treatment groups) | glomerular filtration rate (GFR) [3] | renal hemodynamic changes in the course of diabetic nephropathy [3, 5] | kidney wet weight ([4]; diabetic rats treated with D3-A2, nondiabetic 0.9±0.1, DM-VHC 1.1+0.04) | incipient renal hypertrophy [4, 6] | diabetes-induced renal hyperperfusion [3, 6] | glomerular hyperfiltration [3, 6] |
| --- | --- | --- | --- | --- | --- | --- | --- | --- | --- | --- | --- |
| CC(=CCN1CCN(c2cc(C(F)(F)F)nc(C(C)(C)C)n2)CC1)CSc1nnc(N)n1C [Example 7] | abolished | not | 18 µg/day | 113 mg/day | markedly reduced | 0.83 mL/min | significant decrease |  |  |  |  |
| CC(C)(C)c1nc(N2CCN(CCCSc3nccc(O)n3)CC2)cc(C(F)(F)F)n1.O=C(O)/C=C/C(=O)O [Example 11, 2-(3-(4-(2-t-Butyl-6-trifluoromethyl)pyrimidin-4-yl)piperazin-1-yl)propylmercaptopyrimidin-4-ol fumarate] | abolished |  |  |  |  |  |  | 0.96+0.03 g per 100 g body weight | distinct reduction | distinctly reduced | distinctly reduced |
| CCN1CCC[C@H]1CNC(=O)c1cc(S(N)(=O)=O)ccc1OC [sulpiride, S-sulpiride, reference compound] | not | likewise to be observed | 101 µg/day | 178 mg/day |  | 0.71 mL/min | significant decrease |  |  |  |  |
